In US8206704B2, “Use of GCC ligands” (priority 2003, dated 2012):
pIC50: −log10 of the molar value. Entries after “also recorded” stand apart in the source; their conditions may differ. Read-outs that look alike come from different tables or passages of the source.

Legend:
T84 cells [1] = assay: DNA synthesis ([methyl-3H]thymidine incorporation), tumor cell proliferation; type: cell-based, human
Procedure: (§1) T84 (passages 50-70) and SW480 (passage 100-120) human colon carcinoma cells, obtained from the American Type Culture Collection, were maintained at 37° C. (5% CO2) in DMEM/F12 containing 2.5 mM L-glutamine, 100 units/ml penicillin, 100 μg/ml streptomycin, and 10% (vol/vol) FBS.
(§2) Exponentially growing cancer cells (˜60% confluent in 96-well plates) were synchronized by serum starvation in Eagle's minimal essential medium (EMEM) for 48 h, followed by proliferative induction with 10 mM L-glutamine (in EMEM) for 24 h. ST and other agents were added to cells 15 min before 0.2 μCi per well (1 Ci=37 GBq) of [methyl-3H]thymidine, which was added for 3 h, followed by quantification of [3H]thymidine incorporation into DNA (15).

T84 cells [2] = assay: 45Ca2+ transport (calcium influx); type: cell-based, human
Procedure: Exponentially growing T84 cells (40-80% confluent in 24-well plates) were incubated in media (S-MEM, Life Technologies, Rockville, Md.) containing low (300 μM) CaCl2 to maximize the signal-to-noise ratio for L-cis-diltiazem (L-DLT)-sensitive 45Ca2+ transport determinations. Cells were treated with ST, 8-br-cGMP, and/or L-DLT for the indicated times, followed by the addition of 1 μCi per well 45Ca2+ for the last 15 min. Incubations were terminated by washing four times in cold PBS buffer (145 mM NaCl/5 mM KCl/1 mM MgCl2/10 mM glucose/5 mM Hepes, pH 7.4) containing 0.1 mM EGTA, cells were solubilized with cold NaOH (0.1 M), and radioactivity was quantified in 100-μl aliquots.

[3] = tested on: human T84 colon cancer cells; assay: Perforated whole-cell patch-clamp current measurements; type: cell-based
Procedure: The perforated mode of the whole-cell patch-clamp recording was applied to human T84 colon cancer cells. Membrane potential was controlled through the electrical access obtained by membrane perforation induced by amphotericin B (9, 10). The pipette solution supplemented by amphotericin B ([…]) contained: 140 mM KCl, 1 mM MgCl2, 5 mM EGTA, and 20 mM Hepes-KOH (pH 7.3). The bath solution contained (in mM): 136.5 mM NaCl, 5.4 mM KCl, 1.8 mM CaCl2, 0.5 mM MgCl2, 5.5 mM glucose, and 5 mM Hepes-NaOH (pH 7.4). Voltage-clamp recordings were performed with an Axopatch 1-C patch-clamp amplifier (Axon Instruments, Foster City, Calif.) at 31±1° C. using an HCC-100 temperature controller (Dagan Instruments, Minneapolis; ref. 19).

rat colon = conditions: L-DLT 200 μM; cited from earlier work
SW480 cells = assay: DNA synthesis ([methyl-3H]thymidine incorporation), tumor cell proliferation; type: cell-based, human; conditions: SW480 cells that do not express GC-C, ST 1 μM
Procedure: as §1, §2

[4] = tested on: human colorectal cancer cells; assay: Association of cells with connective tissue proteins in vitro; type: cell-based; conditions: ST at 1 micromolar
Description: Type IV collagen forms the connective tissue meshwork supporting the lamina propria and specifically serves to trap cells through specific interactions with beta integrins. Cancer cells evade this trap by diminishing their ability to bind to type IV collagen. […] Enhancing this interaction will prevent metastases by trapping cells in the laminapropria underlying epithelial cells in the intestine.

[5] = tested on: matrix metalloproteinase 9 release from human colorectal cancer cells; assay: Release of matrix metalloproteinase 9 (MMP 9 activity, western blot); type: cell-based; conditions: ST 1 micromolar
Description: Preventing the secretion of this digestive enzyme will inhibit the ability of these tumor cells to invade the wall of the intestine. […] ST did this at a concentration of 1 micromolar.

[6] = tested on: human T84 colon cancer cells; assay: Perforated whole-cell patch-clamp current measurements; type: cell-based; conditions: Ca-free solution, n=5
[7] = Pharmacokinetics of ST in man by allometric scaling and dosage calculation
Description: An alternative approach is to provide the patient with continual intravenous dosing of ST, thereby maintaining the cytostatic effect through adjuvant chemotherapy, while minimizing any adverse effects associated with ST. To achieve therapeutic efficacy, the steady state concentration (Css) should be ≧10 EC50.

[8] = Pharmacokinetics of ST in rats; type: in vivo, rat; conditions: for half-life: rat, in vivo
GCC-bearing cells = assay: Pre-clinical cell cycle analysis; type: cell-based; conditions: ST alone
[9] = tested on: [cGMP]i and intracellular cAMP in T84 cells; assay: Cyclic nucleotide (cGMP, cAMP) quantification by ELISA or RIA; type: cell-based, human
Procedure: cGMP and cAMP were quantified in exponentially growing T84 cells (˜60% confluent in 96-well plates) employing ELISA (Amersham Pharmacia) or RIA. In experiments employing ELISA, media was aspirated, reactions were terminated by the addition of a lysis solution (200 μl per well) containing 0.5% dodecyltrimethylammonium bromide, and aliquots (100 μl) from each well were processed for cyclic nucleotide determinations. In experiments employing RIA, reactions were terminated with ice-cold 100% ethanol, and supernatants were separated from pellets by centrifugation and processed for cGMP determinations (8).

[10] = ST as an anticancer agent in vitro; type: cell-based
[11] = tested on: human colorectal cancer cells; assay: Actin cytoskeleton organization (confocal microscopy, cell spreading); type: cell-based
Description: ST prevented human colorectal cancer cells from organizing their actin cytoskeleton. […] The latter is a functional readout of the ability of cells to organize actin. Human colorectal cancer cells treated with ST cannot spread their bodies out in vitro. An inability to organize their actin cytoskeletons will prevent these cells from being able to migrate through tissues to metastasize.

ST receptors = ST receptors (Homo sapiens, UniProt P25092); conditions: about; cited from earlier work
Sequence of ST receptors (P25092 24-1073): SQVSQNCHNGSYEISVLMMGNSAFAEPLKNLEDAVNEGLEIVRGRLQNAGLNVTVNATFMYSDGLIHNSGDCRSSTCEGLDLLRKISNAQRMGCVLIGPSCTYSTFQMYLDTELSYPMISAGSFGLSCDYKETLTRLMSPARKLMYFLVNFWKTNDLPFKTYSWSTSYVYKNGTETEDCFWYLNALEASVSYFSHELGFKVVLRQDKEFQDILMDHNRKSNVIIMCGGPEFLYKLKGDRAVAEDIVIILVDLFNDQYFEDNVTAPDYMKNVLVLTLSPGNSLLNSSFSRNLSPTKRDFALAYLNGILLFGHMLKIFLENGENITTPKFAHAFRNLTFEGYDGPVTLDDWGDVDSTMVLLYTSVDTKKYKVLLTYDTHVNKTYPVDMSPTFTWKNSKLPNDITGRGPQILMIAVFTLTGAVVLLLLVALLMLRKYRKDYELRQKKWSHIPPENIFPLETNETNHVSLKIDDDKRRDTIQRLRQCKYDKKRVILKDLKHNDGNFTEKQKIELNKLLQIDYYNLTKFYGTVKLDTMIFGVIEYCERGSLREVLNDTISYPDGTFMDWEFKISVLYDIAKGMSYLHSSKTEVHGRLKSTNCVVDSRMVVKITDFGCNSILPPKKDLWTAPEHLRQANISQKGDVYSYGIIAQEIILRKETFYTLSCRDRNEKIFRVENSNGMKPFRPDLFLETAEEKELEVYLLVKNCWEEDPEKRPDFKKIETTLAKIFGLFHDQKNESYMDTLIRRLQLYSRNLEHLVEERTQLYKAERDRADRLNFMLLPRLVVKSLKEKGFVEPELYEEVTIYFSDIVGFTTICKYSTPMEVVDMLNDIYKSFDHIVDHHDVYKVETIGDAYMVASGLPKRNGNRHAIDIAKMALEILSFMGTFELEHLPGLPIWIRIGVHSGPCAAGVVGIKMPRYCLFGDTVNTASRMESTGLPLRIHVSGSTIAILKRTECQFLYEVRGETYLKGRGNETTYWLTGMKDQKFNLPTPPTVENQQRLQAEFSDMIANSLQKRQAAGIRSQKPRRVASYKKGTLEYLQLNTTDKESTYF

COc1ccc([C@H]2Sc3ccccc3N(CCN(C)C)C(=O)[C@H]2OC(C)=O)cc1 (relative stereo) [L-DLT, L-cis-diltiazem]
Effect of L-DLT on inhibition of proliferation by 8-br-cGMP (T84 cells [1]; 200 μM L-DLT, 8-br-cGMP 5 mM): blocked | Effect of agent on inhibition of proliferation induced by ST (T84 cells [1]; with ST, 1 μM KT5823, 50 μM RP8pCPT-cGMP, 0.5 μM KT5720, 50 μM RP-cAMPs, 10 μM milrinone, 200 μM L-DLT, 20 μM BAPTA, 50 μM DTR, 1 μM PHE, 100 nM CTX): prevented; also recorded: blocked | Effect of L-DLT on ST- and 8-br-cGMP-induced 45Ca2+ influx (T84 cells [2]; pretreatment 30 min, 250 μM L-DLT): inhibited; also recorded: abolished | Effect of L-DLT on ST-induced current and reversal potential shift ([3]; 200 μM L-DLT): reversibly blocked; also recorded: reversed | Reversal potential Em restored by L-DLT in the presence of ST ([3]; n=4): −39.5±5.2 mV | Effect on ST-induced 45Ca2+ influx in the rat colon (rat colon): abolished

CC(C)C[C@@H]1NC(=O)[C@H](CCC(=O)O)NC(=O)[C@@H]2CSSC[C@@H]3NC(=O)[C@H](C)NC(=O)[C@@H]4CCCN4C(=O)[C@H](CC(N)=O)NC(=O)[C@H](CSSC[C@H](NC(=O)[C@H](Cc4ccc(O)cc4)NC(=O)[C@H](Cc4ccccc4)NC(=O)[C@@H](NC(=O)[C@@H](N)CC(N)=O)[C@@H](C)O)C(=O)N2)NC(=O)[C@H](CSSC[C@@H](C(=O)N[C@@H](Cc2ccc(O)cc2)C(=O)O)NC(=O)CNC(=O)[C@H](C)NC3=O)NC1=O [ST]
Inhibition of DNA synthesis by ST (SW480 cells): not in tumor cells deficient in GC-C; also recorded: not in those cells that do not express GC-C | Inhibition of DNA synthesis / cell proliferation by ST (T84 cells [1]; T84 cells expressing GC-C, ST 1 μM): inhibits DNA synthesis; also recorded: inhibits cell proliferation | Increase of association of cells with laminin or fibronectin [4]: not with laminin or fibronectin | Increase of association of cells with type IV collagen [4]: 2 fold | Influx of 45Ca2+ into colon cancer cells (T84 cells [2]; ST 1 μM, 20 min, 8-br-cGMP 5 mM, 40 min): induced influx | Release of matrix metalloproteinase 9 [5]: inhibited the release | Induced current after removal of [Ca2+]ext [6]: 0.02±0.01 nA | Clearance Cl ([7]; 70 kg man, (0.693)(Vd)/(t1/2)): 3.7 mL/min/kg | Volume of distribution Vd of ST ([7]; 70 kg patient, ECF volume): 12 L | t1/2 (α) in man ([7]; calculated): 24 min | Blood half-life for ST (man), α ([7]; man, α phase, allometric scaling theory): 24 min | Blood half-life for ST (man), β ([7]; man, β phase, allometric scaling theory): 11.12 h | t1/2 (α+β) ([7]; used for infusion rate calculation): 31.8 min | Volume of distribution, Vd ([8]; in rats, an ECF agent): 49 mls in rats (An ECF agent) | Clearance ([8]; in rats, primarily renal): 14.9 hr^−1 in rats (Primarily renal) | half-life ([8]; α phase, read-out: Blood half-life for ST (rat), α): 6 min | half-life ([8]; β phase, read-out: Blood half-life for ST (rat), β (converted)): 161 min | Induction of Ca2+-dependent K+ current (KCa), charybdotoxin-sensitive [3]: induced | Reversal potential derived from the induced current-voltage relationship [3]: ~−70 mV | Induction of L-DLT-sensitive membrane current ([3]; 500 nM ST, 2.5 mM 8-br-cGMP): induced membrane current; also recorded: induces an L-DLT-sensitive current | Induced current in the presence of [Ca2+]ext ([3]; control, 1.8 mM CaCl2, n=5): 0.23±0.07 nA | Reversal potential Em in the presence of ST ([3]; n=6): −66.3±3.6 mV | Shift of the reversal potential ΔEm ([3]; ramp pulses, holding potential −40 mV, mean±SEM): −27.5±2.6 mV | Effect on cell cycle (GCC-bearing cells): prolongation of the cell cycle; also recorded: increases equally for all four phases of the cell cycle | [cAMP]i accumulation [9]: did not induce [cAMP]i accumulation | [cGMP]i accumulation [9]: induced the accumulation of [cGMP]i; also recorded: independent of [Ca2+]ext | pIC50 [10]: 7.85 | Organization of actin cytoskeleton ([11]; ST 1 micromolar, confocal microscopy): prevented | Cell spreading ([11]; in vitro): cannot spread

Guanylin: 15 amino acid peptide with about 50% sequence homology to ST, identified in mammalian intestine (PNTCEICAYAACTGC; guanylin)
Guanylate cyclase activation level, fold less than native ST (ST receptors): 10- to 100 fold
